# Test results from ChEMBL document CHEMBL3352084, “Bioactive compounds from the insect Aspongopus chinensis” (Bioorg Med Chem Lett, 2014).
# Active and inactive are the calls of the source. The rule behind the calls is not given here.
# How the values were obtained:
# [1] = target: Prostaglandin G/H synthase 2 (Homo sapiens, UniProt P35354); assay: Inhibition of human recombinant COX2 pre-incubated for 15 mins before arachidonic acid addition by fluorescence micro plate reader method
# Rattus norvegicus [2] = assay: Inhibition of high glucose-induced collagen 4 production in rat renal mesangial cells dosed for 1 hr before 30 mM D-glucose stimulation for 24 hrs by ELISA; format: functional
# Rattus norvegicus [3] = assay: Inhibition of high glucose-induced fibronectin production in rat renal mesangial cells dosed for 1 hr before 30 mM D-glucose stimulation for 24 hrs by ELISA; format: functional
# Rattus norvegicus [4] = assay: Inhibition of high glucose-induced IL6 production in rat renal mesangial cells dosed for 1 hr before 30 mM D-glucose stimulation for 24 hrs by ELISA; format: functional
# [5] = Retention time of the compound by […] method; format: physicochemical
# Sequence of Prostaglandin G/H synthase 2 (P35354 whole entry, looked up): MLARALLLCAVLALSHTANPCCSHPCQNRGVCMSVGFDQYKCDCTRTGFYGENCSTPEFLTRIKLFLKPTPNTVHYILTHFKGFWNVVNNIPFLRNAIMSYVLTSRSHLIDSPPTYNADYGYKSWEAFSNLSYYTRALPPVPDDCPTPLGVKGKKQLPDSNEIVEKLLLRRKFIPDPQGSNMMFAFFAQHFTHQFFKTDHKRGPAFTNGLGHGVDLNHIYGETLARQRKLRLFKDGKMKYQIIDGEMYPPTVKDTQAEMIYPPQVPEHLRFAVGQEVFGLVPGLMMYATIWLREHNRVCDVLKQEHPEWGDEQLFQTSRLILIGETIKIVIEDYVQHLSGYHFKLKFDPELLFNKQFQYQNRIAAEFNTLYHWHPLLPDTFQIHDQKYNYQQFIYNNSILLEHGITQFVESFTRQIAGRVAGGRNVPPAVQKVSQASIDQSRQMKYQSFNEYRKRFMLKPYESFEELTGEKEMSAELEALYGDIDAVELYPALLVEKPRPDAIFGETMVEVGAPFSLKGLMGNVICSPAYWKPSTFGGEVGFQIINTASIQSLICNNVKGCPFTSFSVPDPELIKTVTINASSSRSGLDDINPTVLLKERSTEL
SMILES,IC50 [1] [µM],inhibition (Rattus norvegicus [2]),inhibition (Rattus norvegicus [3]),inhibition (Rattus norvegicus [4]),Retention_time [5] [min]
CC(=O)NCCc1ccc(O)c(O)c1,18.9,,,,
CCc1nc(C)ccc1O,,Active,Active,Active,
CC(C)C[C@@H]1NC(=O)[C@H](Cc2c[nH]c3ccccc23)NC1=O,,Active,Active,Active,
CC(=O)N/C=C\c1ccc2c(c1)OC(c1ccc(O)c(O)c1)C(NC(C)=O)O2 (configuration not stated),6.5,Active,Active,Active,
C/C(=C/CCC(C)c1cc(O[C@@H]2O[C@H](CO)[C@@H](O)[C@H](O)[C@H]2O)c(O)cc1C)C(=O)O (some centres not stated),,,,,25.461
CC(=O)NC[C@@H](OC[C@H](O)CO)c1ccc(O)c(O)c1,117,,,,
CC(=O)N/C=C\c1ccc2c(c1)OC(NC(C)=O)C(c1ccc(O)c(O)c1)O2 (configuration not stated),,Active,Active,Active,
CC(=O)/C=C/c1ccc(O)c(O)c1,22.2,,,,
